Laboratory results reported in patent US8044236B2, “Carboxilic acid derivatives” (Institute of Medicinal Molecular Design, Inc., priority 2006, dated 2011).

Assays:
recombinant human PAI-1 [1] = target: T1, recombinant human PAI-1 (Homo sapiens, UniProt P05121); test: biochemical
Protocol: <Compotion of pH7.4 HEPES Buffer>
(§1) • 0.1 M HEPES • 0.1 M NaCl • […] • 0.1% Polyethylene glycol 8,000 (Hampton Research Corporation) • 2 mM Dimethyldecylphoshine oxide [Apo-10] (Fluka Corporation) [Results]

recombinant rat PAI-1 = target: T2, recombinant rat PAI-1 (Rattus norvegicus, UniProt P20961); test: biochemical
T2 sequence (P20961 24-402): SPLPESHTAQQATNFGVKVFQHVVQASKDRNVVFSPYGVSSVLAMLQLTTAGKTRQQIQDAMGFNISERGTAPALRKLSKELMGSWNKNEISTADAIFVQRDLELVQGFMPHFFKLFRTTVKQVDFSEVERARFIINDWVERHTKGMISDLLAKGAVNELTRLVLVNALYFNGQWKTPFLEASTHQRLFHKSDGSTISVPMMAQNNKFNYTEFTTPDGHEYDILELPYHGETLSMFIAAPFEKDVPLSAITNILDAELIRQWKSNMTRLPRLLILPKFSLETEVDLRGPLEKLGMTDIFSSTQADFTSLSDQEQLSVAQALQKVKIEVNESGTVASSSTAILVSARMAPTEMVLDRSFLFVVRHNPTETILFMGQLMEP
Protocol: as §1

[2] = test system: Crlj:CD(SD) rat AV shunt model; test: Test Example 5: anti-thrombotic activity (rat AV shunt model); assay type: in vivo; details: oral, 10 mg/kg/day for 4 days, mean ± S.E., vehicle 72.7 ± 2.7, *p < 0.05
Protocol: The administration on the 4th day was carried out about 1 hour before the following perfusion start. Put a 6.5 cm silk thread (Matsuda Ika Kogyou; […] On the connected part where the silk thread is through, parafilm was wrapped around to avoid blood leakage. […] Saline was filled in the above catheter, and both ends of the catheter were inserted in right carotid artery and […], respectively, and blood was circulated. 30 minutes later, the catheter was pinched with forceps to stop blood flow, and tube parts where the silk thread is through were cut and removed. The silk thread was carefully removed from the tubes, remaining wet weight was weighed after removing the liquid phase by filter paper, and further subtraction of the weight of the silk thread, gives the thrombus weight. For the thrombus weight in each group, an average value±standard error (S.E.) was calculated. […] For the test, the SAS System Release 8.2 (TS2M0) for Windows (Registered Trademark) (SAS Institute Inc.) and its coorperative system […] Ver. 7.10 (Arm Systex Co. Ltd.) were employed.

recombinant human PAI-1 [3] = target: T1, recombinant human PAI-1; test: Test Example 1: human PAI-1 inhibitory activity (tPA fluorogenic substrate, pH7.5 Tris buffer); assay type: biochemical; design: purchased Molecular Innovations, Inc; details: for Inhibition Rate of Human PAI-1 Activity (%): Tris buffer pH7.5
Protocol: In a 96-well multiplate (black), 1.5 μl of DMSO solution of the present application compound prepared to achieve 80-fold the test concentration (=the final concentration when fluorogenic substrate is added) was diluted with 52.5 μl of pH7.5 Tris buffer. […] Furthermore, 30 μl of 800 IU/ml two-chain tPA (Activity Standard; American diagnostics, inc.) prepared by Tris buffer was added, and the mixed solution was incubated for 15 minutes at room temperature. To this, 30 μl of 400 μM fluorogenic substrate (Pyr-Gly-Arg-MCA; Peptide Institute, Inc.) for tPA prepared by Tris buffer was added and reacted for 30 minutes at room temperature.
<Composition of pH7.5 Tris Buffer)

[4] = read-out: Inhibition Rate of Rat PAI-1 Activity (%)
[5] = pH 7.5, read-out: Inhibition Rate of Human PAI-1 Activity (%)

T1 sequence (P05121 24-402): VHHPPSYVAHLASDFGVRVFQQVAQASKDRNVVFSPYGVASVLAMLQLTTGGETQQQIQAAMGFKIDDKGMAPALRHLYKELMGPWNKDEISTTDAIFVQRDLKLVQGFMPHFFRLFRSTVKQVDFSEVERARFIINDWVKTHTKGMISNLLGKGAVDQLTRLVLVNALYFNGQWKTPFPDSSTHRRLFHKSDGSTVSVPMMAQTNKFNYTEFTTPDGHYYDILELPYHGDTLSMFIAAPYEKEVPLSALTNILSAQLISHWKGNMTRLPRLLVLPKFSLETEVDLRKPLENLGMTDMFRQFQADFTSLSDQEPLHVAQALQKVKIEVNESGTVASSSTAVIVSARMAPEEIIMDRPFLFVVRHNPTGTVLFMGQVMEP

Row | Compound | Inhibition Rate of Human PAI-1 Activity (%) (recombinant human PAI-1 [3]; compound 5 μM) | Inhibition Rate of Human PAI-1 Activity (%) (recombinant human PAI-1 [3]; compound 10 μM) | Inhibition Rate of Human PAI-1 Activity (%) (recombinant human PAI-1 [3]; compound 25 μM) | further results
1 | CC(C)(C)c1ccc(COc2ccc(-c3ccc(OC(F)(F)F)cc3)cc2CCC(=O)O)cc1 [Compound 5, 3-{4-[4-(tert-butyl)benzyloxy]-4′-(trifluoromethoxy)biphenyl-3-yl}propanoic acid] | – | – | – | IC50 (recombinant human PAI-1 [1]): 1270 nM; IC50 (recombinant rat PAI-1): 2800 nM; Thrombus Weight (mg) [2]: 57.5 ± 5.0* mg
2 | CC(C)(C)c1ccc(COc2ccc(-c3ccc(OC(F)(F)F)cc3)cc2CC(=O)O)cc1 [Compound 9, {4-[4-(tert-butyl)benzyloxy]-4′-(trifluoromethoxy)biphenyl-3-yl}acetic acid] | – | – | – | IC50 (recombinant human PAI-1 [1]): 1300 nM; IC50 (recombinant rat PAI-1): 2070 nM
3 | CC(C)(C)c1ccc(Oc2ccc(-c3ccc(OC(F)(F)F)cc3)cc2CCC(=O)O)cc1 [Compound 13, 3-{4-[4-(tert-butyl)phenoxy]-4′-(trifluoromethoxy)biphenyl-3-yl}propanoic acid] | – | – | – | IC50 (recombinant human PAI-1 [1]): 1170 nM; IC50 (recombinant rat PAI-1): 2170 nM; inhibition at 10 µM (recombinant rat PAI-1; [4]): > 99%
4 | O=C(O)CCc1cc(-c2ccccc2)ccc1OCc1ccc(OC(F)(F)F)cc1 [Compound 58, 3-{4-[4-(trifluoromethoxy)benzyloxy]biphenyl-3-yl}propanoic acid] | 19 | 32 | 74 | –
5 | CC(C)(C)c1ccc(COc2ccc(-c3ccc(OC(F)(F)F)cc3)cc2N(Cc2ccccc2)C(=O)C(=O)O)cc1 [Compound 59, N-benzyl-N-{4-[4-(tert-butyl)benzyloxy]-4′-(trifluoromethoxy)biphenyl-3-yl}oxamic acid] | – | – | – | inhibition at 3 µM (recombinant human PAI-1 [1]; pH 7.4, read-out: Inhibition Rate of Human PAI-1 Activity (%)): > 99%; inhibition at 3 µM (recombinant rat PAI-1; [4]): > 99%; inhibition at 10 µM (recombinant rat PAI-1; [4]): > 99%; inhibition at 25 µM (recombinant human PAI-1 [3]; [5]): 81%
6 | COc1ccccc1-c1ccc(OCc2ccc(C(C)(C)C)cc2)c(/C=C/C(=O)O)c1 [Compound 61, (E)-3-{4-[4-(tert-butyl)benzyloxy]-2′-methoxybiphenyl-3-yl}propenoic acid] | 21 | 46 | 95 | –
7 | COc1ccccc1-c1ccc(OCc2ccc(C(C)(C)C)cc2)c(CCC(=O)O)c1 [Compound 62, 3-{4-[4-(tert-butyl)benzyloxy]-2′-methoxybiphenyl-3-yl}propanoic acid] | 22 | 47 | 91 | –
8 | COc1ccc(COc2ccc(-c3ccc(OC(F)(F)F)cc3)cc2CCC(=O)O)cc1 [Compound 66, 3-[4-(4-methoxybenzyloxy)-4′-(trifluoromethoxy)biphenyl-3-yl]propanoic acid] | 15 | 35 | 25 | –
9 | CC(C)(C)c1ccc(COc2ccc(-c3ccc(OC(F)(F)F)cc3)cc2CCc2nnn[nH]2)cc1 [Compound 69, 5-{2-{4-[4-(tert-butyl)benzyloxy]-4′-(trifluoromethoxy)biphenyl-3-yl}ethyl}-1H-tetrazole] | – | – | – | inhibition at 10 µM (recombinant human PAI-1 [3]; [5]): 34%; inhibition at 25 µM (recombinant human PAI-1 [3]; [5]): > 99%
10 | CC(C)(C)c1ccc(COc2ccc(-c3cccc(OC(F)(F)F)c3)cc2/C=C/C(=O)O)cc1 [Compound 70, (E)-3-{4-[4-(tert-butyl)benzyloxy]-3′-(trifluoromethoxy)biphenyl-3-yl}propenoic acid] | 38 | 72 | 93 | –
11 | CC(C)(C)c1ccc(COc2ccc(-c3ccccc3OC(F)(F)F)cc2/C=C/C(=O)O)cc1 [Compound 72, (E)-3-{4-[4-(tert-butyl)benzyloxy]-2′-(trifluoromethoxy)biphenyl-3-yl}propenoic acid] | 42 | 72 | 93 | –

Second part, led by results:

Row | Inhibition Rate of Human PAI-1 Activity (%) (recombinant human PAI-1 [3]; compound 5 μM) | Inhibition Rate of Human PAI-1 Activity (%) (recombinant human PAI-1 [3]; compound 10 μM) | Inhibition Rate of Human PAI-1 Activity (%) (recombinant human PAI-1 [3]; compound 25 μM) | Compound | further results
12 | 49 | 74 | 95 | CC(C)(C)c1ccc(COc2ccc(-c3cccc(OC(F)(F)F)c3)cc2CCC(=O)O)cc1 [Compound 71, 3-{4-[4-(tert-butyl)benzyloxy]-3′-(trifluoromethoxy)biphenyl-3-yl}propanoic acid] | –
13 | 52 | 80 | >99 | CC(C)(C)c1ccc(COc2ccc(-c3ccccc3OC(F)(F)F)cc2CCC(=O)O)cc1 [Compound 73, 3-{4-[4-(tert-butyl)benzyloxy]-2′-(trifluoromethoxy)biphenyl-3-yl}propanoic acid] | –
14 | 37 | 70 | 94 | CC(C)(C)c1ccc(-c2ccc(OCc3ccccc3OC(F)(F)F)c(CCC(=O)O)c2)cc1 [Compound 74, 3-{4′-(tert-butyl)-4-[2-(trifluoromethoxy)benzyloxy]biphenyl-3-yl}propanoic acid] | –
15 | 40 | 74 | 95 | CC(C)(C)c1ccc(-c2ccc(OCc3cccc(OC(F)(F)F)c3)c(CCC(=O)O)c2)cc1 [Compound 75, 3-{4′-(tert-butyl)-4-[3-(trifluoromethoxy)benzyloxy]biphenyl-3-yl}propanoic acid] | –
16 | 47 | 71 | 95 | CC(C)(C)c1ccc(-c2ccc(OCc3ccc(C(F)(F)F)cc3)c(CCC(=O)O)c2)cc1 [Compound 77, 3-{4′-(tert-butyl)-4-[4-(trifluoromethyl)benzyloxy]biphenyl-3-yl}propanoic acid] | –
17 | 51 | 80 | 93 | CCCCc1ccc(COc2ccc(-c3ccc(C(C)(C)C)cc3)cc2CCC(=O)O)cc1 [Compound 78, 3-[4′-(tert-butyl)-4-(4-butylbenzyloxy)biphenyl-3-yl]propanoic acid] | –
